Measured values taken from article PMC7346179, “Fe Porphyrin-Based SOD Mimic and Redox-Active Compound, (OH)FeTnHex-2-PyP^4+, in a Rodent Ischemic Stroke (MCAO) Model: Efficacy and Pharmacokinetics as Compared to Its Mn Analogue, (H2O)MnTnHex-2-PyP^5+” (Antioxidants, 2020).
Where “and” joins values, the source holds several entries; their conditions need not be identical. Equal entries are not always repeated.

Legend:
SOD-deficient E. coli = details: higher than MnHex; cited from earlier work
[1] = cited from earlier work
[2] = 7-day PK study in healthy rats; assay type: in vivo
Protocol: Samples were prepared as described in [10] with modifications to accommodate the small tissue sizes and enhance the detection sensitivity. Quantitative liquid chromatography electrospray-ionization tandem mass spectrometry (LCMS/MS) analysis was performed on a Shimadzu 20A series HPLC (LC)-Applied Biosystems/MDS Sciex API 3200 QTrap or API 4000 QTrap tandem-mass spectrometer (MS/MS) as described earlier. The use of heptafluorobutyric acid (HFBA) mobile phase modifier as an ion-pairing agent increases the overall lipophilicity and volatility, which increases the retention and ionization efficiency of the analytes, affording an abundance of HFBA-associated ions. […] (OH)FeTnBuOE-2-PyP^4+ was prepared as described for other Fe(III) N-alkylpyridylporphyrins and analogous (H2O)MnTnBuOE-2-PyP^5+ [13, 16]. The solvents employed were: A = 95:5 H2O:MeCN (0.1% HFBA); B = MeCN (0.1% HFBA). […] With the chosen solvent system, all four atropoisomers collapsed into a single peak, enhancing the sensitivity of the method to as low as 0.5 nM (nanomoles per L of tissue homogenate). Analyses were performed using a Phenomenex Luna C18 guard cartridge (ID × L, 2 × 4 mm) only. […] Their structures are also shown. […] The response was calculated as the ratio between the standard peak area and the internal standard peak area. We conducted a 7-day rat PK study under conditions identical to those that afforded the therapeutic efficacy of MnTnHex-2-PyP^5+ in an earlier study. […] Afterwards, blood/plasma samples were collected before injection and at 2 h after 24 h-injections (every second injection). Liver and brains were taken for analysis 12 h after the last injection. Three rats were used per compound. After the single (first) SC injection, we obtained a prototypical PK profile observed in the case of all Mn(III) ortho […] In contrast, although similarly absorbed after SC injection, the […] Our understanding is that the “elimination” process is actually a fast distribution/retention into/by the liver, kidney, and spleen, a multi-compartmental process responsible for early decay of the plasma concentration, observed for all Mn porphyrin analogs investigated.

[3] = 2-h PK study in rats that underwent MCAO; assay type: in vivo
Protocol: Samples were prepared as described in [10] with modifications to accommodate the small tissue sizes and enhance the detection sensitivity. Quantitative liquid chromatography electrospray-ionization tandem mass spectrometry (LCMS/MS) analysis was performed on a Shimadzu 20A series HPLC (LC)-Applied Biosystems/MDS Sciex API 3200 QTrap or API 4000 QTrap tandem-mass spectrometer (MS/MS) as described earlier. The use of heptafluorobutyric acid (HFBA) mobile phase modifier as an ion-pairing agent increases the overall lipophilicity and volatility, which increases the retention and ionization efficiency of the analytes, affording an abundance of HFBA-associated ions. […] (OH)FeTnBuOE-2-PyP^4+ was prepared as described for other Fe(III) N-alkylpyridylporphyrins and analogous (H2O)MnTnBuOE-2-PyP^5+ [13, 16]. The solvents employed were: A = 95:5 H2O:MeCN (0.1% HFBA); B = MeCN (0.1% HFBA). […] With the chosen solvent system, all four atropoisomers collapsed into a single peak, enhancing the sensitivity of the method to as low as 0.5 nM (nanomoles per L of tissue homogenate). Analyses were performed using a Phenomenex Luna C18 guard cartridge (ID × L, 2 × 4 mm) only. […] Their structures are also shown. […] The response was calculated as the ratio between the standard peak area and the internal standard peak area. Another possible cause for the failure of therapeutics in stroke may be their slow accumulation in the brain, i.e., not being there in time to prevent the burst of reactive species and rapid activation of transcription factors, which perpetuate oxidative stress. We therefore conducted short-term 2-h PK to evaluate how fast post-MCAO our drug gets into the brain. Three rats per compound were subjected to 90 min of transient right MCAO as reported. The first dose of 0.225 mg/kg was given IV via the […] at 5 min after ischemia/reperfusion. The second dose of 0.225 mg/kg was given SC at 30 min after reperfusion. Blood was collected at 2 h and plasma harvested. Rats were perfused with heparin saline (2000 IU/500 mL) until no reddish fluid came out from the right atrium. Then, the liver, and left and right brain were collected and placed on dry ice and stored at -20 °C. Plasma, liver, and brain were analyzed by LCMS/MS.

rat MCAO stroke model = assay: 7-day rat MCAO efficacy study; assay type: in vivo, rats; details: 0.225 mg/kg twice per day 7 days
Protocol: The 7-day rat MCAO study was done as described in [9]. The 250–275 g Wistar rats were used as another species is a requirement for preclinical stroke research. The duration of the right MCAO was 90 min. […] The first dose was given IV slowly via the […] at 5 min after ischemia/reperfusion. The following doses were given SC. At day 7 post-injury, a person blinded to the treatment groups assessed the neurological deficit and then brains were harvested for infarct volume measurements.

[4] = healthy rats, SC 0.225 mg/kg BID 7 days, 12 h after last injection
[5] = healthy rats, SC 0.225 mg/kg BID 7 days, WinNonlin simulation

monohydroxo Fe(III) meso-tetrakis(N-n-hexylpyridinium-2yl)porphyrin [FeHex]
efficacy in SOD-deficient E. coli model relative to MnHex (SOD-deficient E. coli): ~ 2 orders of magnitude
log kcat(O2^•−), log of rate constant for catalysis of O2^•− dismutation [1]: 7.53
plasma exposure (AUC) relative to MnHex ([2]; 7-day twice-daily treatment of rats): more than 2 fold
brain concentration at end of 7-day treatment [2, 4]: 24 nM
end-of-treatment 7-day liver tissue level [2, 4]: 0.04 µM
average plasma concentration (Caver) [2, 5]: 160 nM
plasma AUC [2, 5]: 26.9 µM·h
Cmax ([2]; healthy rats, SC 0.225 mg/kg BID 7 days, WinNonlin simulation, read-out: Cmax at steady state, plasma): 210 nM
elimination from plasma after single (first) SC injection ([2]; healthy rats, SC 0.225 mg/kg, first 12 h): much slower elimination from the plasma
plasma half-life ([2]; healthy rats, SC 0.225 mg/kg, estimated from simulation, 0.225 mg/kg): 23 h and ~ 23 h
level in injured (right) brain hemisphere ([3]; rats after 90-min MCAO, 0.225 mg/kg IV + 0.225 mg/kg SC, 2 h after reperfusion): ~ 55 nM
liver level relative to MnHex ([3]; rats after MCAO, 2 h): lower in the liver
plasma level relative to MnHex ([3]; rats after MCAO, 2 h): higher in plasma
p, cortex infarct volume vs vehicle (rat MCAO stroke model): 0.48
p, neuroscore vs vehicle (rat MCAO stroke model): 0.28
p, subcortex infarct volume vs vehicle (rat MCAO stroke model): 0.11
p, total infarct volume vs vehicle (rat MCAO stroke model): 0.31
neurological deficit (neuroscore and infarct volume) (rat MCAO stroke model; first dose IV, then SC): only slightly, but insignificantly, improved
